Results taken from PubChem BioAssay AID2060896 (Molecular Pharmacology Branch, DTP, NCI, 2025).
Values belong to the molecule of their own block, whether it stands above or below them.

Tested on: 941728-121-R-J1-PDC complex spheroid viability
Experiment: Anticancer human tumor 941728-121-R-J1-PDC patient-derived lung adenocarcinoma cell line growth inhibition [RAS]
Conditions: for IC50: curve of first compound; for viability, T/C: stronger effect = lower value
Procedure, shortened: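 Multi-cell-type spheroids: tumor cells plus HUVEC endothelial cells and mesenchymal stem cells. RAS-pathway inhibitors were combined with targeted agents, each dosed in half-log steps down from clinical Cmax, or from 10 microM when Cmax was unknown.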

[1] = second compound 0.0316 µM, first compound 0.00316 µM
[2] = second compound 0.0316 µM, first compound 0.01 µM
[3] = second compound 0.0316 µM, first compound 0.0316 µM
[4] = second compound 0.0316 µM, first compound 0.1 µM
[5] = second compound 0.0316 µM, first compound 0.316 µM
[6] = second compound 0.0316 µM, first compound 1 µM
[7] = second compound 0.1 µM, first compound 0.00316 µM
[8] = second compound 0.1 µM, first compound 0.01 µM
[9] = second compound 0.1 µM, first compound 0.0316 µM
[10] = second compound 0.1 µM, first compound 0.1 µM
[11] = second compound 0.1 µM, first compound 0.316 µM
[12] = second compound 0.1 µM, first compound 1 µM
[13] = second compound 0.316 µM, first compound 0.00316 µM
[14] = second compound 0.316 µM, first compound 0.01 µM
[15] = second compound 0.316 µM, first compound 0.0316 µM
[16] = second compound 0.316 µM, first compound 0.1 µM
[17] = second compound 0.316 µM, first compound 0.316 µM
[18] = second compound 0.316 µM, first compound 1 µM
[19] = second compound 1 µM, first compound 0.00316 µM
[20] = second compound 1 µM, first compound 0.01 µM
[21] = second compound 1 µM, first compound 0.0316 µM
[22] = second compound 1 µM, first compound 0.1 µM
[23] = second compound 1 µM, first compound 0.316 µM
[24] = second compound 1 µM, first compound 1 µM
[25] = second compound 0.0316 µM, first compound 0.000949 µM
[26] = second compound 0.0316 µM, first compound 0.003 µM
[27] = second compound 0.0316 µM, first compound 0.00949 µM
[28] = second compound 0.0316 µM, first compound 0.03 µM
[29] = second compound 0.0316 µM, first compound 0.0949 µM
[30] = second compound 0.0316 µM, first compound 0.3 µM
[31] = second compound 0.1 µM, first compound 0.000949 µM
[32] = second compound 0.1 µM, first compound 0.003 µM
[33] = second compound 0.1 µM, first compound 0.00949 µM
[34] = second compound 0.1 µM, first compound 0.03 µM
[35] = second compound 0.1 µM, first compound 0.0949 µM
[36] = second compound 0.1 µM, first compound 0.3 µM
[37] = second compound 0.316 µM, first compound 0.000949 µM
[38] = second compound 0.316 µM, first compound 0.003 µM
[39] = second compound 0.316 µM, first compound 0.00949 µM
[40] = second compound 0.316 µM, first compound 0.03 µM
[41] = second compound 0.316 µM, first compound 0.0949 µM
[42] = second compound 0.316 µM, first compound 0.3 µM
[43] = second compound 1 µM, first compound 0.000949 µM
[44] = second compound 1 µM, first compound 0.003 µM
[45] = second compound 1 µM, first compound 0.00949 µM
[46] = second compound 1 µM, first compound 0.03 µM
[47] = second compound 1 µM, first compound 0.0949 µM
[48] = second compound 1 µM, first compound 0.3 µM
[49] = second compound 3.16 µM, first compound 0.000949 µM
[50] = second compound 3.16 µM, first compound 0.003 µM
[51] = second compound 3.16 µM, first compound 0.00949 µM
[52] = second compound 3.16 µM, first compound 0.03 µM
[53] = second compound 3.16 µM, first compound 0.0949 µM
[54] = second compound 3.16 µM, first compound 0.3 µM
[55] = second compound 10 µM, first compound 0.000949 µM
[56] = second compound 10 µM, first compound 0.003 µM
[57] = second compound 10 µM, first compound 0.00949 µM
[58] = second compound 10 µM, first compound 0.03 µM
[59] = second compound 10 µM, first compound 0.0949 µM
[60] = second compound 10 µM, first compound 0.3 µM
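Note: spheroids exposed to compounds for 7 days before readout.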
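Throughout, for viability, T/C: 100% = DMSO vehicle control viability.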

- IC50 (second compound 0.0316 µM): < 3.16 nM
- IC50 (second compound 0.1 µM): < 3.16 nM
- IC50 (second compound 0.316 µM): < 3.16 nM
- IC50 (second compound 1 µM): < 3.16 nM
- IC50 (second compound 3.16 µM): < 3.16 nM
- IC50 (second compound 10 µM): < 3.16 nM
Compound: C=CC(=O)N1CCN(c2nc(OCC3CCCN3C)nc3c(F)c(-c4nc(N)cc(C)c4C(F)(F)F)c(Cl)cc23)C(C)C1 (stereo not drawn) + C#Cc1c(F)ccc2cc(O)cc(-c3ncc4c(N5CC6CCC(C5)N6)nc(OCC56CCCN5CC(F)C6)nc4c3F)c12
- viability, T/C [1]: 22.3%
- viability, T/C [2]: 20.1%
- viability, T/C [3]: 18.7%
- viability, T/C [4]: 21%
- viability, T/C [5]: 22.6%
- viability, T/C [6]: 21.2%
- viability, T/C [7]: 22.9%
- viability, T/C [8]: 19.5%
- viability, T/C [9]: 21.8%
- viability, T/C [10]: 20.7%
- viability, T/C [11]: 19.8%
- viability, T/C [12]: 23.9%
- viability, T/C [13]: 22.1%
- viability, T/C [14]: 22.2%
- viability, T/C [15]: 21%
- viability, T/C [16]: 23.4%
- viability, T/C [17]: 20.7%
- viability, T/C [18]: 21.4%
- viability, T/C [19]: 21.3%
- viability, T/C [20]: 19.5%
- viability, T/C [21]: 22%
- viability, T/C [22]: 21.5%
- viability, T/C [23]: 22.2%
- viability, T/C [24]: 22.5%
- viability, T/C (second compound 3.16 µM, first compound 0.00316 µM): 22.8%
- viability, T/C (second compound 3.16 µM, first compound 0.01 µM): 20.1%
- viability, T/C (second compound 3.16 µM, first compound 0.0316 µM): 22%
- viability, T/C (second compound 3.16 µM, first compound 0.1 µM): 20.3%
- viability, T/C (second compound 3.16 µM, first compound 0.316 µM): 22%
- viability, T/C (second compound 3.16 µM, first compound 1 µM): 22.3%
- viability, T/C (second compound 10 µM, first compound 0.00316 µM): 21.9%
- viability, T/C (second compound 10 µM, first compound 0.01 µM): 21.1%
- viability, T/C (second compound 10 µM, first compound 0.0316 µM): 17.5%
- viability, T/C (second compound 10 µM, first compound 0.1 µM): 17.8%
- viability, T/C (second compound 10 µM, first compound 0.316 µM): 18.2%
- viability, T/C (second compound 10 µM, first compound 1 µM): 14.7%

- IC50 (second compound 0.0316 µM): > 300 nM
- IC50 (second compound 0.1 µM): > 300 nM
- IC50 (second compound 0.316 µM): < 0.949 nM
- IC50 (second compound 1 µM): < 0.949 nM
- IC50 (second compound 3.16 µM): < 0.949 nM
- IC50 (second compound 10 µM): < 0.949 nM
Compound: CC1(C)CCC(Nc2ncc(C(F)(F)F)c(-c3c[nH]c4c(P(C)(C)=O)c(C#N)ccc34)n2)CN1 (stereo not drawn) + C#Cc1c(F)ccc2cc(O)cc(-c3ncc4c(N5CC6CCC(C5)N6)nc(OCC56CCCN5CC(F)C6)nc4c3F)c12
- viability, T/C [25]: 71.4%
- viability, T/C [26]: 58.2%
- viability, T/C [27]: 53.7%
- viability, T/C [28]: 48%
- viability, T/C [29]: 49.9%
- viability, T/C [30]: 54.6%
- viability, T/C [31]: 68.5%
- viability, T/C [32]: 53.6%
- viability, T/C [33]: 55.5%
- viability, T/C [34]: 52.7%
- viability, T/C [35]: 50.5%
- viability, T/C [36]: 49.4%
- viability, T/C [37]: 51.5%
- viability, T/C [38]: 46.7%
- viability, T/C [39]: 38.5%
- viability, T/C [40]: 45.4%
- viability, T/C [41]: 44.4%
- viability, T/C [42]: 49.6%
- viability, T/C [43]: 33.8%
- viability, T/C [44]: 40.2%
- viability, T/C [45]: 35.6%
- viability, T/C [46]: 36.3%
- viability, T/C [47]: 38.6%
- viability, T/C [48]: 38.9%
- viability, T/C [49]: 30.9%
- viability, T/C [50]: 30.8%
- viability, T/C [51]: 33.6%
- viability, T/C [52]: 35.1%
- viability, T/C [53]: 34.4%
- viability, T/C [54]: 34.5%
- viability, T/C [55]: 23%
- viability, T/C [56]: 30.1%
- viability, T/C [57]: 24.3%
- viability, T/C [58]: 24.9%
- viability, T/C [59]: 27.5%
- viability, T/C [60]: 26%

- IC50 (second compound 0.0316 µM): 26.2 nM
- IC50 (second compound 0.1 µM): 12.2 nM
- IC50 (second compound 0.316 µM): < 0.949 nM
- IC50 (second compound 1 µM): < 0.949 nM
- IC50 (second compound 3.16 µM): < 0.949 nM
- IC50 (second compound 10 µM): < 0.949 nM
Compound: CCc1c2c(nc3ccc(O)cc13)-c1cc3c(c(=O)n1C2)COC(=O)[C@]3(O)CC + C#Cc1c(F)ccc2cc(O)cc(-c3ncc4c(N5CC6CCC(C5)N6)nc(OCC56CCCN5CC(F)C6)nc4c3F)c12
- viability, T/C [25]: 77.8%
- viability, T/C [26]: 61.1%
- viability, T/C [27]: 54.1%
- viability, T/C [28]: 49.8%
- viability, T/C [29]: 51.6%
- viability, T/C [30]: 40.5%
- viability, T/C [31]: 69.4%
- viability, T/C [32]: 58.8%
- viability, T/C [33]: 45%
- viability, T/C [34]: 53.6%
- viability, T/C [35]: 48.4%
- viability, T/C [36]: 39.9%
- viability, T/C [37]: 52.9%
- viability, T/C [38]: 42.4%
- viability, T/C [39]: 42.5%
- viability, T/C [40]: 42.6%
- viability, T/C [41]: 44.7%
- viability, T/C [42]: 34.6%
- viability, T/C [43]: 34.8%
- viability, T/C [44]: 37.9%
- viability, T/C [45]: 30.6%
- viability, T/C [46]: 31.8%
- viability, T/C [47]: 32.4%
- viability, T/C [48]: 29%
- viability, T/C [49]: 25.6%
- viability, T/C [50]: 26.1%
- viability, T/C [51]: 26.7%
- viability, T/C [52]: 23.5%
- viability, T/C [53]: 21.4%
- viability, T/C [54]: 19%
- viability, T/C [55]: 21.9%
- viability, T/C [56]: 18.5%
- viability, T/C [57]: 18.6%
- viability, T/C [58]: 14.8%
- viability, T/C [59]: 13.3%
- viability, T/C [60]: 8.73%

- IC50 (second compound 0.00316 µM): < 3.16 nM
- IC50 (second compound 0.01 µM): < 3.16 nM
- IC50 (second compound 0.0316 µM): < 3.16 nM
- IC50 (second compound 0.1 µM): < 3.16 nM
- IC50 (second compound 0.316 µM): < 3.16 nM
- IC50 (second compound 1 µM): < 3.16 nM
Compound: C=CC(=O)Nc1cc(Nc2nccc(-c3cn(C)c4ccccc34)n2)c(OC)cc1N(C)CCN(C)C + C=CC(=O)N1CCN(c2nc(OCC3CCCN3C)nc3c(F)c(-c4nc(N)cc(C)c4C(F)(F)F)c(Cl)cc23)C(C)C1
- viability, T/C (second compound 0.00316 µM, first compound 0.00316 µM): 17.3%
- viability, T/C (second compound 0.00316 µM, first compound 0.01 µM): 25.6%
- viability, T/C (second compound 0.00316 µM, first compound 0.0316 µM): 17.1%
- viability, T/C (second compound 0.00316 µM, first compound 0.1 µM): 21.1%
- viability, T/C (second compound 0.00316 µM, first compound 0.316 µM): 17.6%
- viability, T/C (second compound 0.00316 µM, first compound 1 µM): 16.7%
- viability, T/C (second compound 0.01 µM, first compound 0.00316 µM): 20.4%
- viability, T/C (second compound 0.01 µM, first compound 0.01 µM): 18.3%
- viability, T/C (second compound 0.01 µM, first compound 0.0316 µM): 19.5%
- viability, T/C (second compound 0.01 µM, first compound 0.1 µM): 18.2%
- viability, T/C (second compound 0.01 µM, first compound 0.316 µM): 14.4%
- viability, T/C (second compound 0.01 µM, first compound 1 µM): 17.3%
- viability, T/C [1]: 18.4%
- viability, T/C [2]: 16.9%
- viability, T/C [3]: 17.2%
- viability, T/C [4]: 17.9%
- viability, T/C [5]: 17.5%
- viability, T/C [6]: 15.8%
- viability, T/C [7]: 21.1%
- viability, T/C [8]: 19.7%
- viability, T/C [9]: 15.5%
- viability, T/C [10]: 15.8%
- viability, T/C [11]: 18.7%
- viability, T/C [12]: 16.4%
- viability, T/C [13]: 19.8%
- viability, T/C [14]: 18.1%
- viability, T/C [15]: 15.7%
- viability, T/C [16]: 17.1%
- viability, T/C [17]: 19.7%
- viability, T/C [18]: 15.6%
- viability, T/C [19]: 20.6%
- viability, T/C [20]: 15.7%
- viability, T/C [21]: 18.2%
- viability, T/C [22]: 17.3%
- viability, T/C [23]: 18.9%
- viability, T/C [24]: 16.2%
